Assay results reported in patent US20190218170A1, “BRANCHED TRIALKYLAMINE PRECURSORS, INTERMEDIATES, PRODUCTS MADE THEREFROM AND PROCESSES OF MANUFACTURE” (priority 2018, published 2019).

Experiments:
[1] = Draves Wetting Test (ASTM D2281-68); format: physicochemical; conditions: 0.05 wt % (actives basis) in DI water; average of 3 measurements
Protocol: A 0.05 wt % (actives basis) solution of amine oxide in deionized (DI) water was used to determine the Draves wet-out time (WOT) in seconds. 0.75 g of surfactant was dispersed in 1,500 ml of DI water. The wet-out time (WOT) in seconds is recorded in Table 14 (average of 3 measurements). LAO is Lauramine oxide (linear hydrophobe), Sigma catalog number 40236.

[2] = Foam height, high shear (Waring blender); format: physicochemical; conditions: for Foam volume (ml) 5 min / Foam volume (ml) Initial: 0.05 wt % in deionized water; for Foam volume (ml) 5 min: after 5 minutes; for Foam volume (ml) Initial: blended on High 30 seconds; for % decrease: foam volume, initial to 5 min
Protocol: A 0.05 wt % (actives basis) solution of the test surfactant was made in deionized water. 250 ml of the test solution was added the beaker of a Waring blender, capped, and then blended on High for 30 seconds and immediately transferred to a 1 L graduated cylinder. The total volume of foam plus liquid, as well as the liquid layer alone was recorded. The foam and liquid volumes were recorded again after 5 minutes.

[3] = Salt thickening, viscosity of SLS/SLES/amine oxide formulation; format: physicochemical; conditions: shear rate 3/s
Protocol: Linear amine oxides tend to increase the viscosity of a formulation containing NaCl in a dose-dependent manner. The viscosity (cP; shear rate 3/s) of a simple formulation was measured as the salt concentration varied from 0 to 5 wt %.

[4] = Stain removal in cold water, brightness L*; conditions: compared to LAO; additive 0.05% active
Protocol: Amine oxides with linear and branched hydrophobes were compared in a screen for stain removal in cold water. Simple laundry liquid formulations were made that included only surfactants and builder.
Standard stain swatches were purchased from Testfabrics, Inc. (West Pittston, Pa.). STC/CFT PC-S-216 is diluted red lipstick on poly/cotton (65/35), and STC/CFT PC-S-132 is high discriminative sebum (synthetic) with pigment on poly/cotton, both made by Center for Testmaterials BV (CFT; The Netherlands). The swatches were pre-cut into 2 inch squares. The test formulation was diluted with DI water to 0.06% total surfactant to make the wash solution. Additives were added at a final concentration of 0.05% active in the wash solution. Stained fabric swatches were added to the wash solution, washed and rinsed at 20° C., and air-dried. The average swatch brightness (L*) for each treatment, and standard deviation, are reported for 3 replicates. […] All treatments are brighter than the untreated stain swatches. The nonionics NPE and LAE7 removed the lipstick and sebum stains to the same brightness.

[5] = High-shear foaming of N-alkyl-N-methylglucamines in commercial blender; format: physicochemical; conditions: 1 wt % test substance in 10 wt % SDS, diluted to 0.05 wt % surfactant
Protocol: The high-shear foaming behavior of linear and branched N-alkyl-N glucamines was investigated, as this can have an impact on their performance in home care applications. […] The solutions were heated to 80° C., ultrasonicated for 1 h, and cooled to room temperature. Finally, the as-obtained solutions were diluted with MilliQ water to obtain a 0.05 wt % surfactant solution. In agreement with the literature on branched hydrophobes, the high-shear foaming tests performed in the commercial blender indicate that the linear N-decyl-N-methylglucamine (IC10 NMG) solution foams relatively more than its branched counterpart solution. For all solutions, the initial foam volume is between 40 and 53 mL. Lauramine oxide (LAO) appears to be foamier than the N-alkyl-N-methylglucamines.

zein protein = conditions: 1% surfactant solution, 30 C, 30 minutes
Text: Amine oxides with linear and branched hydrophobes from Examples 65 and 66 were compared in a screen to predict mildness of surfactants. There is a correlation between the ability of a surfactant to denature a protein and the skin irritation potential of that surfactant. The relationship is believed to result from surfactant binding to proteins like keratin, followed by the denaturation of these proteins, leading to skin irritation. A common screening test involves measuring the amount of zein (a corn protein which is insoluble in water) solubilized by a surfactant solution, the Zein Solubilization Test (Moore et al., 2003 and references therein)
For the test, 0.0750 g of zein protein is transferred into a 1.5 mL centrifuge tube. To this 1.5 mL of 1% surfactant solution is added, mixed, and placed in a 30 C incubator with mild stirring for 30 minutes. After 30 minutes has elapsed, the tube is centrifuged for 30 min at 3600 rpm. The solution is filtered through a pre-weighed 8 micron filter paper, and then dried overnight in a 50° C. oven. The insoluble zein residue is then weighed and the wt % Zein dissolved is calculated using the equation below. Each solution is analyzed in triplicate. The Zein score is normalized to a standard included in each set of tests, in this case LAE10.
% zein dissolved=(total zein added−total zein after drying Total zein added)×100

[6] = Foaming of amine oxide added to commercial laundry liquid (Waring blender); format: physicochemical; set-up: Difference: unit: ml; conditions: for Difference: initial minus 5 min foam volume
Protocol: The surface foam volume and foam persistence of solutions of the amine oxides with linear and branched hydrophobes from Examples […] were compared. A commercial laundry liquid was diluted in deionized water according to the dosing instructions; 4.2 ml/L Persil Original. The diluted detergent was supplemented with 0%, 2%, 5% (based on wt laundry liquid) of LAO or Branched C12 AO, (2,4-diethyl-N,N-dimethyloctan-1-amine oxide, Example 66), and the solutions mixed briefly and used immediately. 250 ml of each test solution was added the beaker of a Waring blender, capped, and then blended on High for 30 seconds and immediately transferred to a 1 L graduated cylinder. The total volume of foam plus liquid, as well as the liquid layer alone was recorded. The foam and liquid volumes were recorded again after 5 minutes. All tests were performed in triplicate.

[7] = NaCl 0 wt %, 1.4% amine oxide, 4.3% SLS, 4.3% SLES

Row | Structure (SMILES) | Wet out time [1] | Foam volume (ml) 5 min [2] | Foam volume (ml) Initial [2] | % decrease [2] | Viscosity [3, 7] | Viscosity ([3]; NaCl 0.5 wt %) | Viscosity ([3]; NaCl 1.0 wt %) | Viscosity ([3]; NaCl 1.5 wt %) | Viscosity ([3]; NaCl 2.0 wt %) | Viscosity ([3]; NaCl 2.5 wt %) | Viscosity ([3]; NaCl 3.0 wt %) | Viscosity ([3]; NaCl 3.5 wt %) | Viscosity ([3]; NaCl 4.0 wt %) | Viscosity ([3]; NaCl 4.5 wt %) | Viscosity ([3]; NaCl 5.0 wt %) | other results
1 | CCCCC(CC)CC(C)C[N+](C)(C)[O-] (stereo not shown) [Example 65, 4-ethyl-N,N-2-trimethyloctan-1-amine oxide] | >300 s | 0 mL | 267 mL | 100% | 2 cP | 7 cP | 36 cP | 257 cP | 2,050 cP | 3,635 cP | 3,459 cP | 2,021 cP | 670 cP | 288 cP | 148 cP | foam in the wash solution [4]: very little foam
2 | CCCCCCCCCCCC[N+](C)(C)[O-] [LAO, N,N-dimethyl laurylamine oxide, reference compound] | 33 s | 500 mL | 523 mL | 4% | 2 cP | 2 cP | 11 cP | 115 cP | 1,494 cP | 7,562 cP | 17,343 cP | 25,302 cP | 27,585 cP | 24,918 cP | 19,368 cP | Foam volume after 5 seconds stirring at speed 1 [5]: 53 mL; Foam volume after 5 minutes settling [5]: 50 mL; Zein score - normalized to LAE10 (zein protein): 4.212; Foam volume After 5 min ([6]; Persil + 2% additive): 473 mL; Difference ([6]; Persil + 2% additive): 54; Foam volume After 5 min ([6]; Persil + 5% additive): 507 mL; Difference ([6]; Persil + 5% additive): 6; Initial foam volume ([6]; Persil Original 4.2 ml/L + 2% additive): 527 mL; Initial foam volume ([6]; Persil Original 4.2 ml/L + 5% additive): 513 mL
